Measurements reported in the NIST ThermoML archive (doi:10.1016/j.fluid.2007.07.010).
± gives the expanded uncertainty stated by the source.

Details: Liquid, Ebulliometric method (Recirculating still)

For CCCC [butane], the “vapor or sublimation pressure” value (273.15 K) was 104 ± 2 kPa, the “vapor or sublimation pressure” value (283.15 K) was 150 ± 2 kPa and the “vapor or sublimation pressure” value (293.15 K) was 208 ± 2 kPa. For the same compound, the “vapor or sublimation pressure” value (303.15 K) was 284 ± 2 kPa, the “vapor or sublimation pressure” value (313.15 K) was 378 ± 3 kPa and the “vapor or sublimation pressure” value (323.15 K) was 495 ± 3 kPa.

In the case of CC(F)F [1,1-difluoroethane], the “vapor or sublimation pressure” value (273.15 K) is reported as 264 ± 2 kPa, the “vapor or sublimation pressure” value (283.15 K) is reported as 372 ± 2 kPa and the “vapor or sublimation pressure” value (293.15 K) is reported as 512 ± 3 kPa. For the same compound, the “vapor or sublimation pressure” value (303.15 K) was 689 ± 3 kPa, the “vapor or sublimation pressure” value (313.15 K) was 909 ± 4 kPa and the “vapor or sublimation pressure” value (323.15 K) was 1176 ± 5 kPa.
